# Assay results from PubChem BioAssay AID1259407 (Chemical Carcinogenesis Research Information System (CCRIS), 2018).
# Active and inactive are the calls of the source. No rule for the calls is given here.
# System: CCRIS mutagenicity, Ames/micronucleus/aberration tests
# Experiment: CCRIS mutagenicity studies
# [1] = Test System: AMES SALMONELLA TYPHIMURIUM, Strain/Indicator: TA98(NR), Metabolic Activation: NONE, Method: PREINCUBATION
# [2] = Test System: AMES SALMONELLA TYPHIMURIUM, Strain/Indicator: TA98, Metabolic Activation: NONE, Method: PREINCUBATION
# [3] = Test System: AMES SALMONELLA TYPHIMURIUM, Strain/Indicator: TA98, Metabolic Activation: NONE, Method: STANDARD PLATE
# [4] = Test System: AMES SALMONELLA TYPHIMURIUM, Strain/Indicator: TA100, Metabolic Activation: NONE, Method: STANDARD PLATE
structure (smiles),measurement,setting,value
O=[N+]([O-])c1ccc2ccc3cc4ccccc4c4ccc1c2c34,mutagenic call,"Test System: AMES SALMONELLA TYPHIMURIUM, Strain/Indicator: TA98(1,8-DNP6), Metabolic Activation: NONE",active; positive
same,mutagenic call,"Test System: AMES SALMONELLA TYPHIMURIUM, Strain/Indicator: TA98(1,8-DNP6), Metabolic Activation: NONE, Method: STANDARD PLATE",active; positive
same,mutagenic call,"Test System: AMES SALMONELLA TYPHIMURIUM, Strain/Indicator: TA98(1,8-DNP6), Metabolic Activation: RAT, LIVER, S-9, AROCLOR 1254",active; positive
same,mutagenic call,"Test System: AMES SALMONELLA TYPHIMURIUM, Strain/Indicator: TA98(NR), Metabolic Activation: NONE",active; positive
same,mutagenic call,[1],active; positive
same,mutagenic call,"Test System: AMES SALMONELLA TYPHIMURIUM, Strain/Indicator: TA98(NR), Metabolic Activation: NONE, Method: STANDARD PLATE",inactive; negative
same,mutagenic call,"Test System: AMES SALMONELLA TYPHIMURIUM, Strain/Indicator: TA98(NR), Metabolic Activation: RAT, LIVER, S-9, AROCLOR 1254",active; positive
same,mutagenic call,"Test System: AMES SALMONELLA TYPHIMURIUM, Strain/Indicator: TA98, Metabolic Activation: NONE",active; positive
same,mutagenic call,"Test System: AMES SALMONELLA TYPHIMURIUM, Strain/Indicator: TA98, Metabolic Activation: NONE', Method: STANDARD PLATE",active; positive
same,mutagenic call,[2],active; positive
same,mutagenic call,[3],active; positive
same,mutagenic call,"Test System: AMES SALMONELLA TYPHIMURIUM, Strain/Indicator: TA98, Metabolic Activation: NONE, Method: STANDARD PLATE (ANAEROBIC)",active; positive
same,mutagenic call,"Test System: AMES SALMONELLA TYPHIMURIUM, Strain/Indicator: TA98, Metabolic Activation: RAT, LIVER, HEPATOCYTES, AROCLOR 1254",active; positive
same,mutagenic call,"Test System: AMES SALMONELLA TYPHIMURIUM, Strain/Indicator: TA98, Metabolic Activation: RAT, LIVER, S-9, AROCLOR 1254",active; positive
same,mutagenic call,[4],active; positive
same,mutagenic call,"Test System: CHINESE HAMSTER OVARY, Strain/Indicator: CHO-K1-BH4 (HGPRT), Metabolic Activation: NONE",inactive; negative
same,mutagenic call,"Test System: CHINESE HAMSTER OVARY, Strain/Indicator: CHO-K1-BH4 (HGPRT), Metabolic Activation: RAT, LIVER, S-9, 3-METHYLCHOLANTHRENE",active; positive
same,mutagenic call,"Test System: CHO/HGPRT, Strain/Indicator: CHO-K1-BH4, Metabolic Activation: NONE",inactive; negative
same,mutagenic call,"Test System: CHO/HGPRT, Strain/Indicator: CHO-K1-BH4, Metabolic Activation: RAT, LIVER, HEPATOCYTES",inactive; negative
same,mutagenic call,"Test System: CHO/HGPRT, Strain/Indicator: CHO-K1-BH4, Metabolic Activation: RAT, LIVER, HEPATOCYTES, 3-METHYLCHOLANTHRENE",inactive; negative
same,mutagenic call,"Test System: CHO/HGPRT, Strain/Indicator: CHO-K1-BH4, Metabolic Activation: RAT, LIVER, HEPATOCYTES, AROCLOR 1254",inactive; negative
same,mutagenic call,"Test System: CHO/HGPRT, Strain/Indicator: CHO-K1-BH4, Metabolic Activation: RAT, LIVER, S-9",inactive; negative
same,mutagenic call,"Test System: CHO/HGPRT, Strain/Indicator: CHO-K1-BH4, Metabolic Activation: RAT, LIVER, S-9, 3-METHYLCHOLANTHRENE",active; positive
same,mutagenic call,"Test System: CHO/HGPRT, Strain/Indicator: CHO-K1-BH4, Metabolic Activation: RAT, LIVER, S-9, AROCLOR 1254",active; positive
CC(=O)Nc1ccc(Oc2ccc(N(O)C(C)=O)cc2)cc1,mutagenic call,"Test System: AMES SALMONELLA TYPHIMURIUM, Strain/Indicator: TA98(1,8-DNP6), Metabolic Activation: NONE, Method: PREINCUBATION",active; positive
same,mutagenic call,"Test System: AMES SALMONELLA TYPHIMURIUM, Strain/Indicator: TA98(1,8-DNP6), Metabolic Activation: RAT, LIVER, S-9, AROCLOR 1254, Method: PREINCUBATION",active; positive
same,mutagenic call,[1],active; positive
same,mutagenic call,"Test System: AMES SALMONELLA TYPHIMURIUM, Strain/Indicator: TA98(NR), Metabolic Activation: RAT, LIVER, S-9, AROCLOR 1254, Method: PREINCUBATION",active; positive
same,mutagenic call,[2],active; positive
same,mutagenic call,"Test System: AMES SALMONELLA TYPHIMURIUM, Strain/Indicator: TA98, Metabolic Activation: RAT, LIVER, S-9, AROCLOR 1254, Method: PREINCUBATION",active; positive
same,mutagenic call,"Test System: AMES SALMONELLA TYPHIMURIUM, Strain/Indicator: TA100(NR), Metabolic Activation: NONE, Method: PREINCUBATION",active; positive
same,mutagenic call,"Test System: AMES SALMONELLA TYPHIMURIUM, Strain/Indicator: TA100(NR), Metabolic Activation: RAT, LIVER, S-9, AROCLOR 1254, Method: PREINCUBATION",active; positive
same,mutagenic call,"Test System: AMES SALMONELLA TYPHIMURIUM, Strain/Indicator: TA100, Metabolic Activation: NONE, Method: PREINCUBATION",active; positive
same,mutagenic call,"Test System: AMES SALMONELLA TYPHIMURIUM, Strain/Indicator: TA100, Metabolic Activation: RAT, LIVER, S-9, AROCLOR 1254, Method: PREINCUBATION",active; positive
C1=CC2OC2c2cccnc21 (stereo not given),mutagenic call,[4],inactive; negative
same,mutagenic call,"Test System: AMES SALMONELLA TYPHIMURIUM, Strain/Indicator: TA100, Metabolic Activation: RAT, LIVER, S-9, AROCLOR 1254 (10% OR 20%), Method: STANDARD PLATE",inactive; negative
CC1CCC(C(C)C)C(O)C1 (stereo not given),mutagenic call,"End Point: IN VITRO CHROMOSOMAL ABERRATIONS, Test System: CHO CELLS, Metabolic Activation: NONE",active; positive
same,mutagenic call,"End Point: IN VITRO CHROMOSOMAL ABERRATIONS, Test System: TK6 HUMAN LYMPHOBLASTS, Metabolic Activation: NONE",active; positive
CCN(CC)CCNc1ccc(C)c2sc3ccccc3c(=O)c12,mutagenic call,[3],inactive; negative
same,mutagenic call,"Test System: AMES SALMONELLA TYPHIMURIUM, Strain/Indicator: TA98, Metabolic Activation: RAT, LIVER, S-9, AROCLOR 1254 OR PHENOBARBITOL, Method: STANDARD PLATE",inactive; negative
same,mutagenic call,[4],inactive; negative
same,mutagenic call,"Test System: AMES SALMONELLA TYPHIMURIUM, Strain/Indicator: TA100, Metabolic Activation: RAT, LIVER, S-9, AROCLOR 1254 OR PHENOBARBITOL, Method: STANDARD PLATE",inactive; negative
same,mutagenic call,"Test System: AMES SALMONELLA TYPHIMURIUM, Strain/Indicator: TA1535, Metabolic Activation: NONE, Method: STANDARD PLATE",inactive; negative
same,mutagenic call,"Test System: AMES SALMONELLA TYPHIMURIUM, Strain/Indicator: TA1535, Metabolic Activation: RAT, LIVER, S-9, AROCLOR 1254 OR PHENOBARBITOL, Method: STANDARD PLATE",active; positive
same,mutagenic call,"Test System: AMES SALMONELLA TYPHIMURIUM, Strain/Indicator: TA1537, Metabolic Activation: NONE, Method: STANDARD PLATE",active; positive
same,mutagenic call,"Test System: AMES SALMONELLA TYPHIMURIUM, Strain/Indicator: TA1537, Metabolic Activation: RAT, LIVER, S-9, AROCLOR 1254 OR PHENOBARBITOL, Method: STANDARD PLATE",active; positive
same,mutagenic call,"Test System: AMES SALMONELLA TYPHIMURIUM, Strain/Indicator: TA1538, Metabolic Activation: NONE, Method: STANDARD PLATE",inactive; negative
same,mutagenic call,"Test System: AMES SALMONELLA TYPHIMURIUM, Strain/Indicator: TA1538, Metabolic Activation: RAT, LIVER, S-9, AROCLOR 1254 OR PHENOBARBITOL, Method: STANDARD PLATE",inactive; negative
same,mutagenic call,"Test System: MOUSE LYMPHOMA, Strain/Indicator: L5178Y (TK+/TK-), Metabolic Activation: NONE, Method: SUSPENSION/PLATE",active; positive
CCCCOC(N)=O,mutagenic call,"Test System: E. COLI, Strain/Indicator: WP2 UVRA, Metabolic Activation: NONE, Method: FLUCTUATION TEST",inactive; negative
